Test results from US9796755B2, “Methods of treating depression and other related diseases” (Northwestern University, priority 2009, dated 2017).
Where a SMILES comes first, the peptide text is derived from it.

Columns and labels:
[1] = tested on: rat hippocampal organotypic cultures; assay: LTP and LTD in rat hippocampal organotypic cultures; format: cell-based; settings: in vitro
rats [2] = assay: Porsolt test (Forced Swim Test), systemic dosing; format: in vivo, rat; settings: for effect on floating times in the Porsolt test: Sprague Dawley rats, 20-60 min post dosing
Experimental: For the evaluation of the antidepressant actions of GLYX-13, the effect of GLYX-13 in the Porsolt test of depression was examined in rats. Porsolt testing is the most commonly used test for assessment of depression in animal model, Porsolt testing, also known as Forced Swim Test, is based on a behavioral trait that is sensitive to changes in affective state. During this test, the animal is placed in a tank (18 cm diameter×45 cm height) filled to 30 cm with 22-23° C. water. After placing the animal in the tank, the amount of time for which the rat is immobile when it stops struggling is measured. Porsolt test is based on the fact that antidepressants increase the latency to immobility and decrease the time for which the rat is immobile. […] The interpretation of the Porsolt test is that the antidepressants reinstate active coping mechanisms and decrease the passive immobility evoked by stress.
In order to evaluate the effectiveness of GLYX-13 as antidepressant, three month old FBNF1 rats were separated into two groups of 9 animals. The first group of rats was intravenously injected with 10 mg/kg GLYX-13 and the second group of animals was intravenously injected with PBS vehicle (1 ml/kg) in a blind manner via chronic subdural femoral vein access ports. Both groups of animals were injected 10 to 15 minutes before the start of testing.
For Porsolt testing, animals were given a 15 minute pre-test habituation in the tank to induce learned helplessness on day one. Following this, on the subsequent day, the animals were injected with GLYX-13 or vehicle 10-15 minutes before being placed into the tank for a 5 minute test session. After placing the animals in the tank, the amount of time for which each animal is immobile when it stops struggling (Mean Immobility Time) was measured. Decrease in Mean Immobility Time is a measure of the effectiveness of the antidepressant.
A second experiment was performed in the same manner as Example 1, except that 2-3 month Sprague-Dawley rats were used, and treated with either intravenous (1, 3, 10, 32 mg/kg), subcutaneous (1, 3, 10, 32, 56, 100 mg/kg) injections of GLYX-13 or saline vehicle (1 mg/ml) 15 (i,v.) or 20 (s.c.) min before the start of the final 5 min test session. Ketamine (10 mg/kg i.p.) was given 60 min befbre the start of testing (Garcia et al., (2008) Prog Neuropsychopharmacol Biol Psychiatry, 32, 140-144).
To determine whether the antidepressant effect of GLYX-13 was specific to the sequence of the GLXY-13 peptide, mean time (sec) spent floating in the Porsolt test was determined in groups of 12 three-month old Sprague Dawley rats administered with GLYX-13 (TPPT-NH2 (SEQ ID NO: 13); 3 mg/kg , i.v. tail vein), a scrambled peptide (PTPT-NH3(SEQ ID NO: 19); 3 mg/kg i.v. tail vein), or 0.9% saline vehicle (1 ml/kg, i.v. tail vein). Administration occurred 60 min before the 5 min testing session. Animals received a 15 min training swim session one day before dosing.
To evaluate whether the anti-depressive and anxiolytic effects of GLYX-13 would persist beyond a few hours, rats were tested in the Porsolt test and the Open Field test, described above. Groups of 10-11 three-month old Sprague-Dawley rats were pretreated with GLYX-13 (3 mg/kg i.v.), ketamine (10 mg/kg i.v.) or saline vehicle injection (1 mg/ml i.v. tail vein) 96 hrs before the start of testing. Animals received a single 15 min. training swim session one day before dosing. Animals were tested 96 hrs post dosing in the Porsolt test without any testing during the intervening period. Open field testing was conducted without pre-habituation 1 day after Porsolt testing (i.e. 120 hrs post dosing). Mean(±SEM) time (sec.) spent floating in the Porsolt test, time spent in the center compartment (sec.), and line crosses in the open field test were determined.
The Porsolt test adapted for use in rats was performed as above. […]

NMDA receptor = target: T1, NMDA receptor (Rattus norvegicus, UniProt P35439); assay: Pharmacologically isolated NMDAR EPSCs in hippocampal slices (CA1 pyramidal neurons); format: cell-based; settings: NMDA receptor current, hippocampal slice assay; read-out: intrinsic activity relative to D-serine (full agonist)
T1 construct: from tissue; host or cells: rat hippocampal slices, CA1 pyramidal neurons
Experimental: Experiments were conducted on hippocampal slices from 14-18 day old Sprague-Dawley rats. Whole cell recordings were obtained from CA1 pyramidal neurons voltage clamped at −69 mV, in slices perfused with ACSF containing 0 mM [Mg2+] and 3 mM [Ca2+], plus 10 μM bicuculline and 20 μM CNQX to pharmacologically isolate NMDAR-dependent. EPSCs. Following bath applications of varying concentrations of GLYX-13 and D-serine, EPSCs were elicited by stimulating Schaffer collateral fibers with single electrical pulses (80 μs duration) once every 30 s.
Functional affinity, Kp, of GLYX-13 for the NMDAR was estimated using the equiactive concentration null method of Stephenson (Stephenson R. P. (1956) A modification of receptor theory. Br J Pharmacol Chemother 11(4):379-393) as exemplified by Kenakin (Kenakin T. P. (1997) Pharmacologic Analysis of Drug-Receptor Interaction (New York.)) In this analysis concentration-response curves are generated to full agonist, and to the full agonist in the presence of a set concentration of the partial agonist of interest (FIG. 18, Panel B). Equiactive concentrations arc read off the […] of each of the concentration-respouse curves and plotted as the concentration of full agonist [D-serine] alone and in the presence of partial agonist [GLYX-13] that produce equal effect.

rats [3] = assay: Conditioned place preference; format: in vivo, rat; settings: GLYX-13 10 mg/kg IV; ketamine 10 mg/kg IV
Experimental: Animals were trained with GLYX-13 (10 mg/kg, IV), ketamine (10 mg/kg, IV), or saline vehicle (1 mL/kg, IV) utilizing an unbiased two-chamber conditioned place preference apparatus.

rats [4] = assay: Drug discrimination in rats trained to discriminate ketamine from saline
Experimental: Testing was conducted as described previously (Nicholson K L & Balster R L (2009) The discriminative stimulus effects of N-methyl-D-aspartate glycine-site ligands in NMDA antagonist-trained rats. Psychopharmacology (Berl) 203(2):441-451). Adult male Sprague Dawley rats were trained to discriminate ketamine (10 mg/kg IP) from saline. Animals were then tested following various doses of GLYX-13 administration (3-156 mg/kg SC) and the percent of ketamine lever responding and rates of responding were recorded.

GluR1 = assay: Total and phosphoserine-845 GluR1 by Western blot in medial prefrontal cortex; format: in vivo, rat; settings: 24 hrs after GLYX-13 3 mg/kg IV or ketamine 10 mg/kg IV
From the text: Total and Phosphoserine-9 glycogen synthase kinase 3β (GSK-3β) were quantified by ELISA according to the manufacturer's instructions (catalog numbers ADI-900-144 and ADI-900-123A, Assay Designs, USA). Total and phosphoserine-845 GluR1 were quantified by Western blot.

## C[C@@H](O)[C@H](N)C(=O)N1CCC[C@H]1C(=O)N1CCC[C@H]1C(=O)N[C@H](C(N)=O)[C@@H](C)O [GLYX-13, L-threonyl-L-prolyl-L-prolyl-L-threonine amide] (H-TPPT-NH2)
[1]
  long-term depression (LTD): reducing
  long-term potentiation (LTP): markedly elevate
Rats [2]; 10 mg/kg SC
  activity in the Porsolt test: active
Rats [2]; 3-10 mg/kg IV
  effect on floating times in the Porsolt test: significantly (P<0.05) reduced floating times
Rats [2]; 10-30 mg/kg SC
  effect on floating times in the Porsolt test: significantly (P<0.05) reduced floating times
Rats [2]; single dose, rats
  onset of action: within minutes
NMDA receptor
  Emax: 23%
Rats [3]
  conditioned place preference, an indicator of abuse potential: did not exhibit either of these effects
Rats [4]; SC, 3-156 mg/kg
  suppression of operant responding (rates of responding): did not suppress operant responding at any dose
Rats [4]; SC, dose range 3-156 mg/kg
  ketamine-like discriminative stimulus effects (percentage ketamine-lever responding): did not show any ketamine-like discriminative stimulus effects
Rats [4]; drug discrimination highest dose vs Porsolt active dose 10 mg/kg SC, printed as 170:10
  therapeutic index: ≥ 17
Rats [4]; highest dose evaluated, 156 mg/kg SC
  effect in the drug discrimination assay: essentially without effect
GluR1
  Phosphoserine-845 GluR1/total GluR1 ratio: increased
